Measured values as given in ChEMBL document CHEMBL1201862, “PubChem BioAssay data set” (2004).
Calls of active or inactive are those of the source.

Assays:
[1] = cells; format: functional, cell-based
[2] = cells; format: functional, cell-based; remark: listed apart in the source
[3] = target: Cytochrome P450 2C19 (Homo sapiens, UniProt P33261); assay: Cytochrome panel assay with activity outcomes. Panel member name: p450-cyp2c19 Compounds with AC50 equal or less than 10 uM are considered active; format: functional; details: read-out: AC50
Cytochrome P450 2C19, sequence (P33261 whole entry): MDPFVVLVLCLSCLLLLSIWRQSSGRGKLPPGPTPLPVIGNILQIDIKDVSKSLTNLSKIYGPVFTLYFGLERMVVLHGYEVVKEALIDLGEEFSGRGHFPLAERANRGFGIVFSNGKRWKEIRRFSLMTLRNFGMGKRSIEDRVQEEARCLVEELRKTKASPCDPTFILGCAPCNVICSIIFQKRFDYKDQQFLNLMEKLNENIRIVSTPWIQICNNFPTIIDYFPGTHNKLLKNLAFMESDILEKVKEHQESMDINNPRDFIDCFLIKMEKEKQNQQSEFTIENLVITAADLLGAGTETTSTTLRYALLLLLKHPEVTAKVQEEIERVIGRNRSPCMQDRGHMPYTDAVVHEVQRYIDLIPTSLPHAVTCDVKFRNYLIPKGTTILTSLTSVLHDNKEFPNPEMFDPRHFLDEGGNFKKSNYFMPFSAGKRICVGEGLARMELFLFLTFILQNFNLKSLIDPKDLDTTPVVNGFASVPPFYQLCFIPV

[4] = Trypanosoma cruzi growth suppression in host cells – NIH3T3 host cells, beta-gal luminescence, confirmation (AID 2044); format: functional, cell-based;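 also: intracellular parasites grown in NIH/3T3 mouse fibroblasts as host cells; luminescent beta-galactosidase reporter signal from transgenic T. cruzi replicating inside host cells; inhibitors lower the luminescence signal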
[5] = NIH3T3 cell viability loss – ATP luminescence, mouse fibroblasts, counter-screen, dose response (AID 2010); format: functional, cell-based;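 also: cells exposed to compound for about 90 hours before reading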
[6] = target: T1, Protein skinhead-1 (Caenorhabditis elegans, UniProt P34707); format: functional
T1 sequence (P34707 whole entry): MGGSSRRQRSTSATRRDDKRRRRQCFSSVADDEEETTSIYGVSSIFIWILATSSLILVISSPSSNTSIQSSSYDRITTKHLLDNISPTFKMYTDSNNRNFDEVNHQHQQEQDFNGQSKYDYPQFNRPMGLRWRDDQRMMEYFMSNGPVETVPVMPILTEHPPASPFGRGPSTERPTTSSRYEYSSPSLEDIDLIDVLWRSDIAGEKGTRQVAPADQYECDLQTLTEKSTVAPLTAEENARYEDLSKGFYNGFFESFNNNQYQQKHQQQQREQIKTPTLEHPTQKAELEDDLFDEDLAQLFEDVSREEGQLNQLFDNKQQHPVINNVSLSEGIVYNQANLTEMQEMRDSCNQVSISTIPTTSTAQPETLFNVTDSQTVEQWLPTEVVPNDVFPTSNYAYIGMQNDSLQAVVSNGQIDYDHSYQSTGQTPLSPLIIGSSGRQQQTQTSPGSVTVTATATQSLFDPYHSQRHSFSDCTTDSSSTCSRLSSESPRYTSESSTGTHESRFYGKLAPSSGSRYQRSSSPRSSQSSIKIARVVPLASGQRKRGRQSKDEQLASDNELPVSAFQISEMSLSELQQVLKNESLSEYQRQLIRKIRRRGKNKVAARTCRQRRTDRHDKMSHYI

[7] = tested on: Streptococcus sp. 'group A'; assay: Streptococcus pyogenes SK(-)GAS viability under kanamycin – luminescence, BacTiterGlo, confirmation, counter-screen for streptokinase expression inhibitor project, dose response (AID 1900); format: functional, organism-based
[8] = target: T2, Streptokinase A (Streptococcus pyogenes serotype M1, UniProt P10520); assay: viability-normalized secreted streptokinase activity reduction – plasminogen activation absorbance, OD405, dose response (AID 1914); format: functional, Streptococcus pyogenes M1 GAS;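 also: secreted streptokinase activity via plasminogen activation per viability signal from cell pellet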
T2 sequence (P10520 whole entry): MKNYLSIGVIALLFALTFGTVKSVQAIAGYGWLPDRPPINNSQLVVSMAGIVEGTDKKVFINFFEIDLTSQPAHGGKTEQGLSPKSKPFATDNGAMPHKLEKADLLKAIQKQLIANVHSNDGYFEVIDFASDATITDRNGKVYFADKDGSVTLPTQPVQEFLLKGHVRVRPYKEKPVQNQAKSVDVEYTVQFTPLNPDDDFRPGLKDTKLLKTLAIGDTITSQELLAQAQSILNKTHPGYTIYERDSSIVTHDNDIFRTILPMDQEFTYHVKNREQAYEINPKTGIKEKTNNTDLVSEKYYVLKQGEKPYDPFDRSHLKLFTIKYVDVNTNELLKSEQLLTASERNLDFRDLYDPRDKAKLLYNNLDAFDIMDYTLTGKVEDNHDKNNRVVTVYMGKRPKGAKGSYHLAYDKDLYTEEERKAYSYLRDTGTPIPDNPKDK

[9] = tested on: Streptococcus; assay: GAS UMAA2166 growth inhibition – luminescence, BacTiterGlo, counter-screen for streptokinase expression inhibitor project, dose response (AID 1915); format: functional, organism-based;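 also: potency for reduction of bacterial viability or growth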
[10] = Luminescence Cell-Based Dose Retest to Confirm Inhibitors of Cancer Stem Cells. [Related pubchem assays (depositor defined):AID2717, AID2721]; format: functional; details: Homo sapiens
[11] = luciferase reporter signal suppression in cells – H4 neuroglioma cells, luminescence, dose response (AID 1990); format: functional, cell-based
[12] = tested on: BJ; assay: BJ-TERT fibroblast viability loss – cell-based, RAS-independent, luminescence, dose response (AID 1933); format: functional; details: Homo sapiens
[13] = Luminescence Cell-Based Dose Response HTS to Identify Inhibitors of 5'UTR Stem-Loop Driven Prion Protein mRNA Translation in H4 Neuroglioblastoma Cells. [Related pubchem assays: 1827 (Project Summary), 1813 (Primary HTS)]; format: functional
[14] = alpha-synuclein stem-loop luciferase translation blockers – H4 neuroglioma cells, luminescence, confirmation (AID 1988); format: functional, cell-based
[15] = tested on: BJ; assay: cells; format: functional, cell-based; details: Homo sapiens
[16] = tested on: BJ; assay: BJ-TERT-LT-ST fibroblast viability loss – cell-based, RAS-independent, luminescence, dose response (AID 1935); format: functional; details: Homo sapiens;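 also: BJ fibroblasts immortalized with TERT plus LT and ST oncogenes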
[17] = DRD fibroblast viability loss – cell-based, non-viral oncogenic, luminescence, dose response (AID 1934); format: functional; details: Homo sapiens
[18] = target: T3, RNA-binding protein pos-1 (Caenorhabditis elegans, UniProt G5EF15); assay: disruptors of C. elegans POS-1 RNA interaction – biochemical, fluorescence polarization, dose response (AID 1964);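 also: purified POS-1 fused to maltose binding protein made in E. coli; potency of compounds blocking POS-1 binding to fluorescent RNA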
T3 sequence (G5EF15 whole entry): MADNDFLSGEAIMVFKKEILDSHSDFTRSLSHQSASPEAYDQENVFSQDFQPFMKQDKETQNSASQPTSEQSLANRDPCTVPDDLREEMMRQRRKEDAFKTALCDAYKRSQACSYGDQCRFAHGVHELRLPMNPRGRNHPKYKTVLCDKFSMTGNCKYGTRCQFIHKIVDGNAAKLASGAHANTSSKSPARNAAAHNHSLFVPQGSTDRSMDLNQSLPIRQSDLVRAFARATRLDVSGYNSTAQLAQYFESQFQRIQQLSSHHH

[19] = target: T4, Zinc finger protein mex-5 (Caenorhabditis elegans, UniProt Q9XUB2); assay: potency of MEX-5 RNA-binding blockers – biochemical, C. elegans, fluorescence polarization, dose response (AID 1960)
T4 sequence (Q9XUB2 whole entry): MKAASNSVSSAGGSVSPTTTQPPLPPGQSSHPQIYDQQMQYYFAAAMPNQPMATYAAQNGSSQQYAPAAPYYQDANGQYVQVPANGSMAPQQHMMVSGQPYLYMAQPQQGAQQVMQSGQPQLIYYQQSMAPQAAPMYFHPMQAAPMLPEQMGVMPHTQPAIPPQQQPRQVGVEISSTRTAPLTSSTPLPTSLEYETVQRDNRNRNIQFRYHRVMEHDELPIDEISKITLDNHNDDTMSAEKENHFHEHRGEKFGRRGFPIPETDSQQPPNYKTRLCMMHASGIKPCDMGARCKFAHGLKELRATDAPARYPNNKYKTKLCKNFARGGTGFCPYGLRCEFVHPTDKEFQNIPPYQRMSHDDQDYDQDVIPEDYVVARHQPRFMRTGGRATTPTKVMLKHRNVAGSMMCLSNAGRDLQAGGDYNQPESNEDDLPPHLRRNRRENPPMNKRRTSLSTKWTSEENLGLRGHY

[20] = target: Cytochrome P450 2D6 (Homo sapiens, UniProt P10635);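 also: CYP2D6 member of a cytochrome P450 panel assay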
Cytochrome P450 2D6, sequence (P10635 whole entry): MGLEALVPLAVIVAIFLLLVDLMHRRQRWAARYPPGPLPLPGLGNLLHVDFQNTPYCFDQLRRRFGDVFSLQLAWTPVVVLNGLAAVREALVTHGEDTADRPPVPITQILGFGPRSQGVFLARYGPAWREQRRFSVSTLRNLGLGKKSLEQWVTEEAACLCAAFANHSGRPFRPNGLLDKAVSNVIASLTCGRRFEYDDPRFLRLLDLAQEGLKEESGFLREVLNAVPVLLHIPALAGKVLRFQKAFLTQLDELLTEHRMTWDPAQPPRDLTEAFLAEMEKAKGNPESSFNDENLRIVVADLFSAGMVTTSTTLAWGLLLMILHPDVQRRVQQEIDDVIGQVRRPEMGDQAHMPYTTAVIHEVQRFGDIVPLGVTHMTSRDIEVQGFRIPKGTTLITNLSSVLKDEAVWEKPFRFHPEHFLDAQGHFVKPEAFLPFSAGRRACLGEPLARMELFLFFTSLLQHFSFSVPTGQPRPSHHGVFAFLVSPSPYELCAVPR

[21] = target: Luciferin 4-monooxygenase (Photinus pyralis, UniProt P08659); assay: inhibition of purified Photinus pyralis luciferase – biochemical, luminescence, dose response (AID 1891)
Luciferin 4-monooxygenase, sequence (P08659 whole entry): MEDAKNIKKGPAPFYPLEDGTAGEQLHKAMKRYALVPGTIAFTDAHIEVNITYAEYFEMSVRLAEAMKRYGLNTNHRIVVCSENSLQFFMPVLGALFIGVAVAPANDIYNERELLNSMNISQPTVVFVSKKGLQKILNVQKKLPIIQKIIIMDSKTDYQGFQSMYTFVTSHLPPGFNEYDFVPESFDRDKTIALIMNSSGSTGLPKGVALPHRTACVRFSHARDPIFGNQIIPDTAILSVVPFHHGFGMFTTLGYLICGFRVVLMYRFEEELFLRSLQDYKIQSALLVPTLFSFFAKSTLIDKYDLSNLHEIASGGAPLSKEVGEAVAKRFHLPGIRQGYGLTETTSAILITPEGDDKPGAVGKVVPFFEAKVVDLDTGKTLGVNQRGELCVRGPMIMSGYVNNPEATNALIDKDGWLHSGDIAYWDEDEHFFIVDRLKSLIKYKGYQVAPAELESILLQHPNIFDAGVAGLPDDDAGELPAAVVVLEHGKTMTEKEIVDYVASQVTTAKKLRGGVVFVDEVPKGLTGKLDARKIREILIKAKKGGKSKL

[22] = Luminescence Cell-Based Dose Confirmation HTS to Identify Inhibitors of Platelet Dense Granule Release. [Related pubchem assays: 1663 (Primary HTS), 1678 (Summary of Project)]; format: functional
[23] = tested on: H9c2; assay: cells; format: functional, cell-based; details: Rattus norvegicus, H9c2, Myocardium;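 also: confirmatory concentration-response retest of ultra-high-throughput screening hits for modulation of myocardial damage; cell death induced by hydrogen peroxide oxidative stress; compound pretreatment for 60 min then peroxide exposure for 2 h; potency is for protecting the cells against peroxide damage rather than for killing them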
[24] = Luminescence Cell-Based Dose Confirmation HTS to Identify Activators of 5'UTR Stem-Loop Driven Alpha-Synuclein mRNA Translation in H4 Neuroglioblastoma Cells. [Related pubchem assays: 1829 (Project Summary), 1814 (Primary HTS)]; format: functional
[25] = Luminescence Cell-Based Dose Response HTS to Identify Activators of Luciferase Translation or Activity in H4 […] Cells. [Related pubchem assays: 1829 (Project Summary), 1814 (Primary HTS)]; format: functional
[26] = tested on: H4; assay: Luminescence Cell-Based Dose Response HTS to Identify Activators of 5'UTR Stem-Loop Driven Prion Protein mRNA Translation in H4 Neuroglioblastoma Cells. [Related pubchem assays: 1829 (Project Summary), 1814 (Primary HTS)]; format: functional; details: Homo sapiens
[27] = target: Paired box protein Pax-8 (Homo sapiens, UniProt Q06710); assay: PAX8 transcriptional activity inhibition in RMG-I – RMG-I cells, luciferase, cherry-pick, dose response (AID 687027); format: functional, cell-based;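 also: luciferase reporter driven by Pax8 target thyroperoxidase promoter measured by SteadyGlo luminescence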
Paired box protein Pax-8, sequence (Q06710 whole entry): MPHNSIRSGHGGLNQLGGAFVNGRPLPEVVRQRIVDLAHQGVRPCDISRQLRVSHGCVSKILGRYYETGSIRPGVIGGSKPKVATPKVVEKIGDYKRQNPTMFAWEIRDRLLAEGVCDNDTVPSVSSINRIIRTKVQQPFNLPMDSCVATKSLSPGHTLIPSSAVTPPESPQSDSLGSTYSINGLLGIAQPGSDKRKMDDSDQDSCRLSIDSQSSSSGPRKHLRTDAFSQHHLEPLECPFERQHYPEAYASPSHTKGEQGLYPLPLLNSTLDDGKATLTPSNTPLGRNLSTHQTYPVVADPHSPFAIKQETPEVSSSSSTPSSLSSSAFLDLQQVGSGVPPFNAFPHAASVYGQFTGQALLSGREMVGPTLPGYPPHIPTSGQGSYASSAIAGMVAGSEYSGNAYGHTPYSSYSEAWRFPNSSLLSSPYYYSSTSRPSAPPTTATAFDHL

[28] = tested on: INS1; assay: INS-1E survival protection against cytokine death – cell-based, luminescence, retest, dose response (AID 449756); format: functional; details: Rattus norvegicus;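 also: cell death triggered by IL-1 beta plus TNF-alpha plus IFN-gamma mixture; protective hits raise ATP signal compared with cytokine alone wells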

Cc1nc(C(=O)Nc2ccc(Cl)cc2Cl)nn1-c1cc(OC(C)C)c(Cl)cc1Cl
EC50 [1]: > 350 µM (not active) | EC50 [2]: > 350 µM (not active) | AC50 [3]: 7.08 µM (inconclusive)

O=[N+]([O-])c1cc(CN2CCCC2)ccc1Sc1ccc(Cl)cc1
EC50 [4]: 0.232 µM (active) | EC50 [5]: 9.06 µM (active) | IC50 [6]: 17.9 µM (active)

Cc1ccc(N=C(S)Nc2ccc(C(C)C)cc2)cc1S(=O)(=O)N1CCCCCC1
EC50 [7]: 13.2 µM (active) | EC50 [8]: > 150 µM (not active) | EC50 [9]: > 150 µM (not active) | AC50 [10]: 2.1 µM (active)

Cc1ccc(C(=O)c2cc([N+](=O)[O-])ccc2N2CCOCC2)cc1
EC50 [11]: 7.57 µM (active) | EC50 [12]: 5.09 µM (active) | EC50 [13]: 7.18 µM (active) | EC50 [14]: 1.73 µM (active) | EC50 [15]: 36.1 µM (inconclusive) | EC50 [16]: 3.32 µM (inconclusive) | EC50 [17]: 2.27 µM (active)

CCCNc1c(F)c(F)c2c(C)c3ccccc3nc2c1F
EC50 [18]: > 300 µM (inconclusive) | EC50 [19]: 1.97 µM (active) | IC50 [6]: > 100 µM (inactive) | AC50 [20]: 25.1 µM (inconclusive)

Cc1cccc2[nH]c3c(N4CC=C(c5ccc(F)cc5)CC4)ncnc3c12
EC50 [7]: 2.84 µM (active) | EC50 [8]: > 150 µM (not active) | EC50 [9]: 7.98 µM (active) | AC50 [10]: 6.48 µM (active)

COc1ccccc1C(c1nnnn1CC1CCCO1)N1CCC(C(N)=O)CC1 (configuration not stated)
EC50 [1]: > 350 µM (not active) | EC50 [2]: > 350 µM (not active)

COc1ccc(C(=O)Nc2ccc(N3CCCC3)cc2)cc1OC
EC50 [12]: 14.9 µM (active) | EC50 [15]: 12.9 µM (active) | EC50 [21]: 1.45 µM (active) | EC50 [22]: 1.03 µM (active) | EC50 [16]: > 150 µM (not active) | EC50 [17]: 11.2 µM (active)

COc1ccc(-c2cc(C(=O)OCC(=O)c3cccc([N+](=O)[O-])c3)c3cc(C)ccc3n2)cc1
EC50 [12]: > 150 µM (not active) | EC50 [15]: > 150 µM (not active) | EC50 [16]: > 150 µM (not active) | EC50 [17]: > 150 µM (not active)

O=C(NCc1ccco1)c1cc(-c2cccs2)on1
EC50 [1]: 150 µM (active) | EC50 [2]: > 350 µM (not active)

O=c1c2ccccc2oc2ccc(C#CC3(O)CCCCC3)cc12
AC50 [10]: 6.5 µM (active)

COc1ccc(CCNC(=O)CSc2nc(-c3ccc(OC)c(OC)c3)ccc2C#N)cc1
EC50 [1]: > 350 µM (not active) | EC50 [2]: > 350 µM (not active)

O=C(CCCOc1ccc(Cl)cc1Cl)N/N=C/c1ccccc1O
EC50 [1]: 11.8 µM (active) | EC50 [2]: > 350 µM (not active)

COc1cccc(/C=N/Nc2nc3ccccc3n3cnnc23)c1
EC50 [11]: > 120 µM (not active) | EC50 [1]: > 350 µM (not active) | EC50 [13]: > 120 µM (not active) | EC50 [14]: 15.6 µM (active) | EC50 [2]: 191 µM (active) | IC50 [23]: > 79 µM (inactive)

O=C(CC1SC(N2CCCC2)=NC1=O)Nc1ccc(C(=O)Nc2ncccc2O)cc1 (configuration not stated)
EC50 [24]: 16.5 µM (active) | EC50 [25]: 11.1 µM (active) | EC50 [1]: 40.5 µM (active) | EC50 [26]: 12.3 µM (active) | EC50 [2]: > 350 µM (not active)

Cc1ccc(/C=N/NC(=O)COc2ccccc2-c2ccccc2)cc1
EC50 [12]: 0.643 µM (inconclusive) | EC50 [15]: 0.605 µM (inconclusive) | EC50 [16]: 0.435 µM (inconclusive) | EC50 [17]: 0.657 µM (active) | AC50 [27]: 0.77 µM (active)

Cc1ccc(-c2nc(=S)c3c(n2CCN2CCOCC2)CC(C)(C)OC3)cc1
IC50 [6]: > 100 µM (inactive)

O=C(COc1ccc(-c2ccccc2)cc1)N/N=C/c1cc(O)ccc1Br
EC50 [7]: 2.51 µM (active) | EC50 [8]: 5.71 µM (active) | EC50 [9]: 4.98 µM (active) | AC50 [10]: 4.31 µM (active)

COC(=O)c1ccc(COc2ccccc2/C=C(\C#N)C(=O)Nc2c(C)cccc2C)cc1
AC50 [10]: 2.46 µM (active) | AC50 [28]: 28.4 µM (active)
